Data taken from ChEMBL document CHEMBL3621068, “Synthesis and biological evaluation of a new class of quinazolinoneazoles as potential antimicrobial agents and their interactions with calf thymus DNA and human serum albumin” (Medchemcomm, 2015).
In brackets after ≈: the same amount, converted by molar mass.

Columns and labels:
Type in all cases: functional
Cyberlindnera jadinii = test: Antifungal activity against Candida utilis ATCC 9950 after 24 hrs by micro broth dilution assay; conditions: Williopsis jadinii, ATCC 9950, 24 h
Aspergillus flavus = test: Antifungal activity against Aspergillus flavus ATCC 204304 after 24 hrs by micro broth dilution assay; conditions: ATCC 204304, 24 h
Saccharomyces cerevisiae = test: Antifungal activity against Beer yeast ATCC 9763 after 24 hrs by micro broth dilution assay; conditions: ATCC 9763, 24 h
Candida albicans = test: Antifungal activity against Candida albicans ATCC 10231 after 24 hrs by micro broth dilution assay; conditions: ATCC 10231, 24 h
Candida = test: Antifungal activity against Candida mycoderma ATCC 9888 after 24 hrs by micro broth dilution assay; conditions: ATCC 9888, 24 h
Micrococcus luteus = test: Antibacterial activity against Micrococcus luteus ATCC 4698 after 24 hrs by micro broth dilution assay; conditions: ATCC 4698, 24 h
Staphylococcus aureus [1] = test: Antibacterial activity against methicillin-resistant Staphylococcus aureus N315 after 24 hrs by micro broth dilution assay; conditions: N315, 24 h
Staphylococcus aureus [2] = test: Antibacterial activity against Staphylococcus aureus ATCC 25923 after 24 hrs by micro broth dilution assay; conditions: ATCC 25923, 24 h
Bacillus spizizenii = test: Antibacterial activity against Bacillus subtilis ATCC 6633 after 24 hrs by micro broth dilution assay; conditions: ATCC 6633, 24 h
Pseudomonas aeruginosa = test: Antibacterial activity against Pseudomonas aeruginosa ATCC 27853 a after 24 hrs by micro broth dilution assay; conditions: ATCC 27853, 24 h
Escherichia coli = test: Antibacterial activity against Escherichia coli DH52 after 24 hrs by micro broth dilution assay; conditions: DH52, 24 h
Bacillus sp. = test: Antibacterial activity against Bacillus proteus ATCC 13315 after 24 hrs by micro broth dilution assay; conditions: Bacillus sp. (in: firmicutes), ATCC 13315, 24 h
[3] = Antibacterial activity against Eberthella typhosa ATCC 14028 after 24 hrs by micro broth dilution assay; conditions: ATCC 14028, 24 h

| SMILES | MIC (Cyberlindnera jadinii) [µM] | MIC (Aspergillus flavus) [µM] | MIC (Saccharomyces cerevisiae) [µM] | MIC (Candida albicans) [µM] | MIC (Candida) [µM] | MIC (Micrococcus luteus) [µM] | MIC (Staphylococcus aureus [1]) [µM] | MIC (Staphylococcus aureus [2]) [µM] | MIC (Bacillus spizizenii) [µM] | MIC (Pseudomonas aeruginosa) [µM] | MIC (Escherichia coli) [µM] | MIC (Bacillus sp.) [µM] | MIC [3] [µM] |
| --- | --- | --- | --- | --- | --- | --- | --- | --- | --- | --- | --- | --- | --- |
| Cc1ncc([N+](=O)[O-])n1CCCCCn1cnc2cc(Cl)ccc2c1=O | 20 (≈ 7.52 µg/mL) | 20 (≈ 7.52 µg/mL) | 40 (≈ 15 µg/mL) | 20 (≈ 7.52 µg/mL) | 20 (≈ 7.52 µg/mL) | 40 (≈ 15 µg/mL) | 20 (≈ 7.52 µg/mL) | 40 (≈ 15 µg/mL) | 20 (≈ 7.52 µg/mL) | > 1360 | 20 (≈ 7.52 µg/mL) | 20 (≈ 7.52 µg/mL) | 20 (≈ 7.52 µg/mL) |
| O=c1c2ccc(F)cc2ncn1CCCCCCBr | 390 (≈ 128 µg/mL) | 1560 (≈ 510 µg/mL) | 780 (≈ 255 µg/mL) | 780 (≈ 255 µg/mL) | > 1560 | 390 (≈ 128 µg/mL) | 390 (≈ 128 µg/mL) | > 1560 | 1560 (≈ 510 µg/mL) | > 1560 | 780 (≈ 255 µg/mL) | 390 (≈ 128 µg/mL) | > 1560 |
| O=c1c2ccc(Cl)cc2ncn1CCBr | 890 (≈ 256 µg/mL) | > 1780 | 890 (≈ 256 µg/mL) | > 1780 | > 1780 | 450 (≈ 129 µg/mL) | 890 (≈ 256 µg/mL) | > 1780 | 1780 (≈ 512 µg/mL) | > 1780 | 1780 (≈ 512 µg/mL) | 890 (≈ 256 µg/mL) | > 1780 |
| CCn1cc(C(=O)O)c(=O)c2cc(F)c(N3CCNCC3)cc21 [NORFLOXACIN] | > 1600 | > 1600 | > 1600 | > 1600 | > 1600 | 10 (≈ 3.19 µg/mL) | 30 (≈ 9.58 µg/mL) | 10 (≈ 3.19 µg/mL) | 10 (≈ 3.19 µg/mL) | 10 (≈ 3.19 µg/mL) | 50 (≈ 16 µg/mL) | 10 (≈ 3.19 µg/mL) | 10 (≈ 3.19 µg/mL) |
| O=c1c2ccc(F)cc2ncn1CCn1cnc([N+](=O)[O-])c1 | 420 (≈ 127 µg/mL) | > 1690 | 210 (≈ 63.7 µg/mL) | 50 (≈ 15.2 µg/mL) | 840 (≈ 255 µg/mL) | 50 (≈ 15.2 µg/mL) | 210 (≈ 63.7 µg/mL) | 840 (≈ 255 µg/mL) | 50 (≈ 15.2 µg/mL) | > 1690 | 840 (≈ 255 µg/mL) | 420 (≈ 127 µg/mL) | 420 (≈ 127 µg/mL) |
| Cc1ncc([N+](=O)[O-])n1CCCCCCn1cnc2cc(Cl)ccc2c1=O | 20 (≈ 7.8 µg/mL) | 40 (≈ 15.6 µg/mL) | 20 (≈ 7.8 µg/mL) | 20 (≈ 7.8 µg/mL) | 20 (≈ 7.8 µg/mL) | 40 (≈ 15.6 µg/mL) | 20 (≈ 7.8 µg/mL) | 20 (≈ 7.8 µg/mL) | 40 (≈ 15.6 µg/mL) | > 1310 | 40 (≈ 15.6 µg/mL) | 20 (≈ 7.8 µg/mL) | 20 (≈ 7.8 µg/mL) |
| Cc1ncc([N+](=O)[O-])n1CCn1cnc2cc(Cl)ccc2c1=O | 50 (≈ 16.7 µg/mL) | 20 (≈ 6.67 µg/mL) | 50 (≈ 16.7 µg/mL) | 50 (≈ 16.7 µg/mL) | 50 (≈ 16.7 µg/mL) | 100 (≈ 33.4 µg/mL) | 50 (≈ 16.7 µg/mL) | 100 (≈ 33.4 µg/mL) | 50 (≈ 16.7 µg/mL) | > 1530 | 100 (≈ 33.4 µg/mL) | 50 (≈ 16.7 µg/mL) | 20 (≈ 6.67 µg/mL) |
| O=c1c2ccc(Cl)cc2ncn1CCCCCn1cnc([N+](=O)[O-])c1 | 350 (≈ 127 µg/mL) | 710 (≈ 257 µg/mL) | 90 (≈ 32.6 µg/mL) | 90 (≈ 32.6 µg/mL) | 180 (≈ 65.1 µg/mL) | 40 (≈ 14.5 µg/mL) | 180 (≈ 65.1 µg/mL) | 180 (≈ 65.1 µg/mL) | 40 (≈ 14.5 µg/mL) | 350 (≈ 127 µg/mL) | 350 (≈ 127 µg/mL) | 350 (≈ 127 µg/mL) | 350 (≈ 127 µg/mL) |
| O=c1c2ccc(F)cc2ncn1CCCCCCCCCCBr | 330 (≈ 126 µg/mL) | 1340 (≈ 514 µg/mL) | 670 (≈ 257 µg/mL) | 670 (≈ 257 µg/mL) | > 1340 | 670 (≈ 257 µg/mL) | 330 (≈ 126 µg/mL) | > 1340 | 1340 (≈ 514 µg/mL) | > 1340 | 1340 (≈ 514 µg/mL) | 330 (≈ 126 µg/mL) | > 1340 |
| Cc1ncc([N+](=O)[O-])n1CCCCCCCCCCn1cnc2cc(Cl)ccc2c1=O | 20 (≈ 8.92 µg/mL) | 20 (≈ 8.92 µg/mL) | 40 (≈ 17.8 µg/mL) | 20 (≈ 8.92 µg/mL) | 40 (≈ 17.8 µg/mL) | 20 (≈ 8.92 µg/mL) | 40 (≈ 17.8 µg/mL) | 20 (≈ 8.92 µg/mL) | 20 (≈ 8.92 µg/mL) | > 1150 | 20 (≈ 8.92 µg/mL) | 20 (≈ 8.92 µg/mL) | 20 (≈ 8.92 µg/mL) |
| Cc1ncc([N+](=O)[O-])n1CCCCn1cnc2cc(Cl)ccc2c1=O | 20 (≈ 7.24 µg/mL) | 40 (≈ 14.5 µg/mL) | 40 (≈ 14.5 µg/mL) | 20 (≈ 7.24 µg/mL) | 40 (≈ 14.5 µg/mL) | 40 (≈ 14.5 µg/mL) | 20 (≈ 7.24 µg/mL) | 40 (≈ 14.5 µg/mL) | 40 (≈ 14.5 µg/mL) | > 1420 | 40 (≈ 14.5 µg/mL) | 20 (≈ 7.24 µg/mL) | 20 (≈ 7.24 µg/mL) |
| Cc1ncc([N+](=O)[O-])n1CCCCCn1cnc2cc(F)ccc2c1=O | 20 (≈ 7.19 µg/mL) | 20 (≈ 7.19 µg/mL) | 20 (≈ 7.19 µg/mL) | 40 (≈ 14.4 µg/mL) | 40 (≈ 14.4 µg/mL) | 20 (≈ 7.19 µg/mL) | 20 (≈ 7.19 µg/mL) | 40 (≈ 14.4 µg/mL) | 20 (≈ 7.19 µg/mL) | > 1420 | 40 (≈ 14.4 µg/mL) | 20 (≈ 7.19 µg/mL) | 20 (≈ 7.19 µg/mL) |
| O=c1c2ccc(Cl)cc2ncn1CCCCBr | 410 (≈ 129 µg/mL) | > 1620 | 810 (≈ 256 µg/mL) | > 1620 | > 1620 | 810 (≈ 256 µg/mL) | 810 (≈ 256 µg/mL) | > 1620 | 1620 (≈ 511 µg/mL) | > 1620 | 810 (≈ 256 µg/mL) | 410 (≈ 129 µg/mL) | > 1620 |
| O=c1c2ccc(F)cc2ncn1CCn1cncn1 | 990 (≈ 257 µg/mL) | 990 (≈ 257 µg/mL) | 490 (≈ 127 µg/mL) | 990 (≈ 257 µg/mL) | 490 (≈ 127 µg/mL) | 30 (≈ 7.78 µg/mL) | 490 (≈ 127 µg/mL) | 990 (≈ 257 µg/mL) | 490 (≈ 127 µg/mL) | 30 (≈ 7.78 µg/mL) | 250 (≈ 64.8 µg/mL) | 990 (≈ 257 µg/mL) | 990 (≈ 257 µg/mL) |
| O=c1c2ccc(F)cc2ncn1CCCCn1cnc([N+](=O)[O-])c1 | 390 (≈ 129 µg/mL) | 770 (≈ 255 µg/mL) | 100 (≈ 33.1 µg/mL) | 100 (≈ 33.1 µg/mL) | 770 (≈ 255 µg/mL) | 50 (≈ 16.6 µg/mL) | 190 (≈ 62.9 µg/mL) | 390 (≈ 129 µg/mL) | 50 (≈ 16.6 µg/mL) | 770 (≈ 255 µg/mL) | 770 (≈ 255 µg/mL) | 390 (≈ 129 µg/mL) | 390 (≈ 129 µg/mL) |
| O=c1c2ccc(F)cc2ncn1CCn1ccnc1 | 990 (≈ 256 µg/mL) | 500 (≈ 129 µg/mL) | 500 (≈ 129 µg/mL) | 990 (≈ 256 µg/mL) | > 1980 | 500 (≈ 129 µg/mL) | 990 (≈ 256 µg/mL) | > 1980 | > 1980 | 990 (≈ 256 µg/mL) | 1980 (≈ 511 µg/mL) | 1980 (≈ 511 µg/mL) | > 1980 |
| O=c1c2ccc(Cl)cc2ncn1CCn1ccnc1 | 470 (≈ 129 µg/mL) | 930 (≈ 255 µg/mL) | 930 (≈ 255 µg/mL) | 930 (≈ 255 µg/mL) | > 1860 | 470 (≈ 129 µg/mL) | 930 (≈ 255 µg/mL) | > 1860 | > 1860 | 930 (≈ 255 µg/mL) | 1860 (≈ 511 µg/mL) | 1860 (≈ 511 µg/mL) | > 1860 |
| O=c1c2ccc(Cl)cc2ncn1CCCCn1cnc([N+](=O)[O-])c1 | 370 (≈ 129 µg/mL) | 740 (≈ 257 µg/mL) | 90 (≈ 31.3 µg/mL) | 90 (≈ 31.3 µg/mL) | 740 (≈ 257 µg/mL) | 50 (≈ 17.4 µg/mL) | 180 (≈ 62.6 µg/mL) | 370 (≈ 129 µg/mL) | 50 (≈ 17.4 µg/mL) | 740 (≈ 257 µg/mL) | 740 (≈ 257 µg/mL) | 370 (≈ 129 µg/mL) | 370 (≈ 129 µg/mL) |
| O=c1c2ccc(Cl)cc2ncn1CCn1cncn1 | 460 (≈ 127 µg/mL) | 930 (≈ 256 µg/mL) | 460 (≈ 127 µg/mL) | 930 (≈ 256 µg/mL) | 460 (≈ 127 µg/mL) | 30 (≈ 8.27 µg/mL) | 460 (≈ 127 µg/mL) | 930 (≈ 256 µg/mL) | 460 (≈ 127 µg/mL) | 30 (≈ 8.27 µg/mL) | 230 (≈ 63.4 µg/mL) | 930 (≈ 256 µg/mL) | 930 (≈ 256 µg/mL) |
